One data set concerns the target T1, MRP1 (Homo sapiens, UniProt P33527).
T1 construct: HL60/ADR and HL60/VCR are continuous cell lines, which were selected for doxorubicin and vincristine resistance respectively; endogenous in cells; host or cells: HL60/ADR (doxorubicin-selected HL60 human acute myeloblastic leukemia cells)
As to the kind of experiment: Reversal of MRP1-mediated doxorubicin resistance in HL60/ADR cells. Type of data set: cell-based. The conditions noted are these: HL60/ADR cells (printed EL60/ADR), oncolytic alone at the tested concentration. Here is the method: (§1) Assay for Reversal of MRP1-Mediated Doxorubicin Resistance and MDR1-Mediated Vincristine Resistance: HL60/ADR and HL60/VCR are continuous cell lines, which were selected for doxorubicin and vincristine resistance respectively by culturing HL60, a human acute myeloblastic leukemia cell line, in increasing concentrations of doxorubicin or vincristine until a highly resistant variant was attained.
(§2) HL60/ADR and HL60/VCR cells were grown in RPMI 1640 (Gibco) containing […] (FBS) and 250 μg/ml GENTAMICIN™ (Sigma). Cells were harvested; washed twice with assay medium (same as culture media); counted; and diluted to 2×10^5 cells/ml in assay medium. Fifty microliters of cells were aliquoted into wells of a 96 well tissue culture plate. One column of each 96 well plate served as a negative control and received assay medium containing no cells.
(§3) Test compounds and reference compounds were dissolved in dimethyl sulfoxide (DMSO) at a concentration of 5 mM. Samples were diluted to 20 μM in assay medium and 25 μl of each test compound was added to 6 wells. Assay standards were run in quadruplicate. Twenty-five microliters of 0.4% DMSO was added to four wells as a solvent control.

The target of another data set is T2, MDR1 (Homo sapiens, UniProt P08183).
T2 construct: HL60/ADR and HL60/VCR are continuous cell lines, which were selected for doxorubicin and vincristine resistance respectively; endogenous in cells; host or cells: HL60/VCR (vincristine-selected HL60 human acute myeloblastic leukemia cells)
T2 sequence (P08183 whole entry): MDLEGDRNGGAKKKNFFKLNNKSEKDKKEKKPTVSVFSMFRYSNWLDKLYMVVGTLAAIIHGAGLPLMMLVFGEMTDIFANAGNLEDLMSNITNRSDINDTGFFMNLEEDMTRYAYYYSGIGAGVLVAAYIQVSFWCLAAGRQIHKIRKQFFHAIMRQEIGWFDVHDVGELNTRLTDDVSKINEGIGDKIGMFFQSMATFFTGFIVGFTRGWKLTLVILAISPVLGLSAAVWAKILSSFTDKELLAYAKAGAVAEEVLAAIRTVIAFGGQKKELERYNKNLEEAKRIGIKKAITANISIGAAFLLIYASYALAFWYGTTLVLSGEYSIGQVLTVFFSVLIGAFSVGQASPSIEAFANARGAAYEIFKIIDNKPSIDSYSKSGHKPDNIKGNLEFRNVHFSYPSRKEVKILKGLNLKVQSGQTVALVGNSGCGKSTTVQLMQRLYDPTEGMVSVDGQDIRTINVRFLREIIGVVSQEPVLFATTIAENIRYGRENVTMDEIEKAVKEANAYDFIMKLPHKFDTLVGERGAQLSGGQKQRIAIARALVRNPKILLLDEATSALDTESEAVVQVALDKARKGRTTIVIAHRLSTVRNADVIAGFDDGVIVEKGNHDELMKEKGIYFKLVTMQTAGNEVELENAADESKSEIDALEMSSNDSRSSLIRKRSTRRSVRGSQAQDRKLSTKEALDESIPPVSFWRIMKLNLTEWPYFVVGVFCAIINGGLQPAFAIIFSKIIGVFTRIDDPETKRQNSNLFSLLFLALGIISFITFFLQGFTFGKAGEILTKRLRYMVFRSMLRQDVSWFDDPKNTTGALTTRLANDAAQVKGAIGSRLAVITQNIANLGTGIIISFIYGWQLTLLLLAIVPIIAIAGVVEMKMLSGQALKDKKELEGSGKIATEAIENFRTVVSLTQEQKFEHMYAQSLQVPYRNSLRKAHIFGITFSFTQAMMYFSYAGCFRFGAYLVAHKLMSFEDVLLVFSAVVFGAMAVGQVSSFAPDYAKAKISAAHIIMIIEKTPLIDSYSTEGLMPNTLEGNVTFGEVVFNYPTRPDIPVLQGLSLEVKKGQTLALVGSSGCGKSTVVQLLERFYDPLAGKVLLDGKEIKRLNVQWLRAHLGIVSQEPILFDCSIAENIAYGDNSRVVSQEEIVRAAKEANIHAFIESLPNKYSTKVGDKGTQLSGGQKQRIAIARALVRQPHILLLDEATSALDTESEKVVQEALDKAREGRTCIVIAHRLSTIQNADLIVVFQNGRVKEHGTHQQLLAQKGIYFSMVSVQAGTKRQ
As to the kind of experiment: Reversal of MDR1-mediated vincristine resistance in HL60/VCR cells. The conditions noted are these: oncolytic alone at the tested concentration. In kind it is cell-based. Here is the method:
as §1, §2, §3

The results in this text go back to patent US6369070B1, “Methods for inhibiting mrp1” (Eli Lilly and Company, priority 1998, dated 2002).

T1 sequence (P33527 whole entry): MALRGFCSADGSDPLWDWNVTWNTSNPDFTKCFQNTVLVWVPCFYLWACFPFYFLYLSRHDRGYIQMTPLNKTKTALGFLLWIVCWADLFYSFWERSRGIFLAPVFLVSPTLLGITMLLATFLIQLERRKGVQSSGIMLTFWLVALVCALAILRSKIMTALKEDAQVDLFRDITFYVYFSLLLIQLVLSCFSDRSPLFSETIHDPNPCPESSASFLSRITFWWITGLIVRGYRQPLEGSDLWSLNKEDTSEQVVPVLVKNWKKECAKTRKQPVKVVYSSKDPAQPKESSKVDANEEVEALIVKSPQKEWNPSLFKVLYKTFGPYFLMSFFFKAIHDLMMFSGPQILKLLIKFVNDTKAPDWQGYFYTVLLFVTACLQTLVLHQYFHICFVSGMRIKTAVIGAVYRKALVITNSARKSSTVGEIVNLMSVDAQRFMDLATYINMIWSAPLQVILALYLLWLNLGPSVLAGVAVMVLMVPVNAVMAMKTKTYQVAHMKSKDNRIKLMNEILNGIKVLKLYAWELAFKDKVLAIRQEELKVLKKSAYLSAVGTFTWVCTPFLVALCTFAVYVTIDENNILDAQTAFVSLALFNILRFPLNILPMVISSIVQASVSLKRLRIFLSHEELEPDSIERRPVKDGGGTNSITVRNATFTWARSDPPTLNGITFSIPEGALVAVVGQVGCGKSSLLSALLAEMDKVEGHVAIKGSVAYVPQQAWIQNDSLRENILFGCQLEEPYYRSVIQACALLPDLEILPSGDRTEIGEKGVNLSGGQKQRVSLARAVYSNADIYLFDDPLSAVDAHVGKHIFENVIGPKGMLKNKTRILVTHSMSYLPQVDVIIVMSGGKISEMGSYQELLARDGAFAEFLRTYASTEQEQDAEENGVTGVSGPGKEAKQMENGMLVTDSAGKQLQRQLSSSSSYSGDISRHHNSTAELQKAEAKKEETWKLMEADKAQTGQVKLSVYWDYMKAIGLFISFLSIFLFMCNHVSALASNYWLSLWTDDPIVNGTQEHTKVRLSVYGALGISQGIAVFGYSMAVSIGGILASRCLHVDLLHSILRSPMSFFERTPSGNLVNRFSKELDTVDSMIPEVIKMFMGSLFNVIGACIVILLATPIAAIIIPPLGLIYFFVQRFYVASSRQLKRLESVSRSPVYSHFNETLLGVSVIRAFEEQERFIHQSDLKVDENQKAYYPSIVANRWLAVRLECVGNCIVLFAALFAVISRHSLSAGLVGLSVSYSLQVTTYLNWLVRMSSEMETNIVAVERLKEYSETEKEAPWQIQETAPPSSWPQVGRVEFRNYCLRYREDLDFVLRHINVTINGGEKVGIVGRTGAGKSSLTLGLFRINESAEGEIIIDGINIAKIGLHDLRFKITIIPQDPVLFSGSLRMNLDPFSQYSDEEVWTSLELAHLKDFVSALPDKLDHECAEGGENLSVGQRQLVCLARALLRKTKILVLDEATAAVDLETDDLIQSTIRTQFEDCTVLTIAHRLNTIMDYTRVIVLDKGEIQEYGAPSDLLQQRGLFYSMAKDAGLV

Take `COc1cccc2c1C(=O)c1c(O)c3c(c(O)c1C2=O)C[C@@](O)(C(=O)CO)C[C@@H]3O[C@H]1C[C@H](N)[C@H](O)[C@H](C)O1` [doxorubicin]: the “inhibition of cell growth by the oncolytic alone” value at MRP1 and at MDR1 was “does not usually inhibit the growth” in each case.
